The results in this text go back to article PMC8694140, “Synthesis and photobiological applications of naphthalimide–benzothiazole conjugates: cytotoxicity and topoisomerase IIα inhibition” (RSC Advances, 2021).

The test system of data set [1] is A549 (lung) human cancer cell line. In words: MTT cytotoxicity assay, A549. It is filed as cell-based. Here is the method:
(§1) Human malignant cell lines, i.e., MCF7 (breast), HeLa (cervix), and A549 (lung), as well as non-cancerous human cell line Hek293 (kidney), were cultured using the Ham's media or DMEM having 10% FBS, […] streptomycin, 100 U ml^−1 penicillin, and 50 mM glutamine. For seeding of cells, 96 well plates were used, maintaining the density of […] cells per well with the help of DMEM as a media having 10% FBS cells. Then, seeded cells were incubated in an incubator having a 5% CO2 supply at 37 °C. Compounds were added to the wells at 1, 10, and 100 μM concentrations, and cells were incubated for 48 h at 37 °C and then added 10 μl of MTT to each well prepared from 5 mg ml^−1 stock solution using 1 × PBS buffer and were incubated for 4 h at 37 °C in the dark. DMSO (100 μl) was used to dissolve the formazan crystals. To determine the concentration of formazan, the crystal absorbance difference was recorded at 570 nm. The percentage of relative cell toxicity was calculated by using the following eqn (1):1 [drawing 1]

In data set [2] the test system is MCF7 (breast) human cancer cell line. Nature of the data set: MTT cytotoxicity assay, MCF7. It counts as cell-based. Here is the method: as §1
The test system of data set [3] is HeLa (cervix) human cancer cell line. In words: MTT cytotoxicity assay, HeLa. It counts as cell-based. Conditions: 48 h. The procedure: as §1
Data set [4] relates to Hek293 (kidney) human noncancerous cell line. In words: MTT cytotoxicity assay, normal cells Hek293. It counts as cell-based. Conditions: read-out: growth inhibition of Hek293. The procedure:
To evaluate the safety, the cytotoxic effect of all compounds (7–22) against Hek293 (kidney) human noncancerous cell line was also evaluated using a colorimetric assay (MTT assay) at the concentration level of 10 μM.
as §1

As for “6-(3-(Benzo[d]thiazol-2-yl)-1-propyl-1H-indol-5-yl)-2-(4-fluorophenyl)-1H-benzo[de]isoquinoline-1,3(2H)-dione [Compound 21]”, the IC50 in data set [1] (48 h) is 0.63 ± 0.08 µM; in data set [2] (48 h), 4.1 ± 0.23 µM; in data set [3], 3.96 ± 0.16 µM.

`C=CCn1cc(-c2nc3ccccc3s2)c2cc(-c3ccc4c5c(cccc35)C(=O)OC4=O)ccc21` [Compound 7, 6-(1-Allyl-3-(benzo[d]thiazol-2-yl)-1H-indol-5-yl)-1H,3H-benzo[de]isochromene-1,3-dione] had a melting point of 255 to 258 °C. In addition, the IC50 in data set [1] (Homo sapiens, A549, 48 h) came out at 0.45 ± 0.04 µM. Besides, in data set [2] (Homo sapiens, MCF7, 48 h), the IC50 is 6.94 ± 0.16 µM. This compound also gave an IC50 in data set [3] (Homo sapiens) of 7.18 ± 0.28 µM.

On to `C=CCn1cc(-c2nc3ccccc3s2)c2cc(-c3ccc4c5c(cccc35)C(=O)N(CCCC)C4=O)ccc21` [Compound 8, 6-(1-Allyl-3-(benzo[d]thiazol-2-yl)-1H-indol-5-yl)-2-butyl-1H-benzo[de]isoquinoline-1,3(2H)-dione], for which the melting point lay within 277 to 280 °C. For the same compound, 1.19 ± 0.11 µM corresponded to half-maximal inhibition in data set [1] (Homo sapiens, A549, 48 h) (IC50). In data set [2] (Homo sapiens, MCF7, 48 h), this compound yielded an IC50 of 7.69 ± 0.2 µM. The compound further displayed an IC50 in data set [3] (Homo sapiens) of 5.52 ± 0.15 µM.

`C=CCn1cc(-c2nc3ccccc3s2)c2cc(-c3ccc4c5c(cccc35)C(=O)N(CCN)C4=O)ccc21` [Compound 9, 6-(1-Allyl-3-(benzo[d]thiazol-2-yl)-1H-indol-5-yl)-2-(2-aminoethyl)-1H-benzo[de]isoquinoline-1,3(2H)-dione]: the half-inhibitory concentration (IC50) in data set [1] (Homo sapiens, A549, 48 h) turned out to be 3.06 ± 0.13 µM; in data set [2] (Homo sapiens, MCF7, 48 h), 4.17 ± 0.13 µM; in data set [3] (Homo sapiens), 4.02 ± 0.18 µM. The inhibition at 10 µM in data set [4] was 17%.

Take `C=CCn1cc(-c2nc3ccccc3s2)c2cc(-c3ccc4c5c(cccc35)C(=O)N(CCN(C)C)C4=O)ccc21` [Compound 10, 6-(1-Allyl-3-(benzo[d]thiazol-2-yl)-1H-indol-5-yl)-2-(2-(dimethylamino)ethyl)-1H-benzo[de] isoquinoline-1,3(2H)-dione]: the melting point fell in the range of 274 to 277 °C. For the same compound, the IC50 in data set [1] (Homo sapiens, A549, 48 h) is 1.02 ± 0.08 µM. Further, in data set [2] (Homo sapiens, MCF7, 48 h), half-maximal inhibition (IC50) required 3.31 ± 0.11 µM. The compound further yielded a half-maximal inhibitory concentration (IC50) in data set [3] (Homo sapiens) of 3.4 ± 0.13 µM.

In the case of `C=CCn1cc(-c2nc3ccccc3s2)c2cc(-c3ccc4c5c(cccc35)C(=O)N(CCN(CC)CC)C4=O)ccc21` [Compound 11, 6-(1-Allyl-3-(benzo[d]thiazol-2-yl)-1H-indol-5-yl)-2-(2-(diethylamino)ethyl)-1H-benzo[de] isoquinoline-1,3(2H)-dione], the melting point fell in the range of 281 to 284 °C. This compound returned a half-maximal inhibitory concentration (IC50) in data set [1] (Homo sapiens, A549, 48 h) of 0.81 ± 0.05 µM. Also, the IC50 in data set [2] (Homo sapiens, MCF7, 48 h) was determined as 3.57 ± 0.21 µM. Also, the IC50 in data set [3] (Homo sapiens) stood at 3.07 ± 0.17 µM. Moreover, in data set [4], the inhibition at 10 µM was approximately 2%.

`C=CCn1cc(-c2nc3ccccc3s2)c2cc(-c3ccc4c5c(cccc35)C(=O)N(CCN3CCOCC3)C4=O)ccc21` [Compound 14, 6-(1-Allyl-3-(benzo[d]thiazol-2-yl)-1H-indol-5-yl)-2-(2-morpholinoethyl)-1H-benzo[de]isoquinoline-1,3(2H)-dione] came in with a melting point of 285 to 288 °C. Besides, the IC50 in data set [1] (Homo sapiens, A549, 48 h) is 1.11 ± 0.06 µM. The compound further registered a concentration for half-maximal inhibition (IC50) in data set [2] (Homo sapiens, MCF7, 48 h) of 3.69 ± 0.09 µM. In addition, in data set [3] (Homo sapiens), inhibition was half-maximal at 3.93 ± 0.11 µM (IC50).

`C=CCN1C(=O)c2cccc3c(-c4ccc5c(c4)c(-c4nc6ccccc6s4)cn5CC=C)ccc(c23)C1=O` [Compound 15, 2-Allyl-6-(1-allyl-3-(benzo[d]thiazol-2-yl)-1H-indol-5-yl)-1H-benzo[de]isoquinoline-1,3(2H)-dione]: the IC50 was determined as 1.89 ± 0.15 µM in data set [1] (Homo sapiens, A549, 48 h); 0.38 ± 0.06 µM in data set [2] (Homo sapiens, MCF7, 48 h); 2.71 ± 0.09 µM in data set [3] (Homo sapiens).

Consider `C=CCn1cc(-c2nc3ccccc3s2)c2cc(-c3ccc4c5c(cccc35)C(=O)NC4=O)ccc21` [Compound 16, 6-(1-Allyl-3-(benzo[d]thiazol-2-yl)-1H-indol-5-yl)-1H-benzo[de]isoquinoline-1,3(2H)-dione], for which the melting point is 277 to 280 °C. This compound also returned a concentration for half-maximal inhibition (IC50) in data set [1] (Homo sapiens, A549, 48 h) of 1.91 ± 0.1 µM. Also, the IC50 in data set [2] (Homo sapiens, MCF7, 48 h) was found to be 3.57 ± 0.08 µM. Further, the half-maximal inhibitory concentration (IC50) in data set [3] (Homo sapiens) worked out at 3.61 ± 0.19 µM.

`C=CCn1cc(-c2nc3ccccc3s2)c2cc(-c3ccc4c5c(cccc35)C(=O)N(Cc3ccccc3)C4=O)ccc21` [Compound 17, 6-(1-Allyl-3-(benzo[d]thiazol-2-yl)-1H-indol-5-yl)-2-benzyl-1H-benzo[de]isoquinoline-1,3(2H)-dione] had a melting point of 281 to 284 °C. Moreover, half-maximal inhibition in data set [1] (Homo sapiens, A549, 48 h) (IC50) was put at 2.01 ± 0.09 µM. This compound also registered a concentration for half-maximal inhibition (IC50) in data set [2] (Homo sapiens, MCF7, 48 h) of 4.39 ± 0.23 µM. This compound had a half-inhibitory concentration (IC50) in data set [3] (Homo sapiens) of 4.17 ± 0.21 µM.

For the compound `C=CCn1cc(-c2nc3ccccc3s2)c2cc(-c3ccc4c5c(cccc35)C(=O)N(Nc3ccccc3)C4=O)ccc21` [Compound 18, 6-(1-Allyl-3-(benzo[d]thiazol-2-yl)-1H-indol-5-yl)-2-(phenylamino)-1H-benzo[de]isoquinoline-1,3(2H)-dione], the concentration for half-maximal inhibition (IC50) turned out to be 0.96 ± 0.12 µM in data set [1] (Homo sapiens, A549, 48 h); 3.58 ± 0.14 µM in data set [2] (Homo sapiens, MCF7, 48 h); 3.96 ± 0.2 µM in data set [3] (Homo sapiens).

Take `C=CCn1cc(-c2nc3ccccc3s2)c2cc(-c3ccc4c5c(cccc35)C(=O)N(C3CCCCC3)C4=O)ccc21` [Compound 19, 6-(1-Allyl-3-(benzo[d]thiazol-2-yl)-1H-indol-5-yl)-2-cyclohexyl-1H-benzo[de]isoquinoline-1,3(2H)-dione]: the melting point was in the range of 285 to 288 °C. The compound also returned a 50% inhibitory concentration (IC50) in data set [1] (Homo sapiens, A549, 48 h) of 1.47 ± 0.12 µM. This compound displayed an IC50 in data set [2] (Homo sapiens, MCF7, 48 h) of 1.65 ± 0.11 µM. Further, the concentration for half-maximal inhibition (IC50) in data set [3] (Homo sapiens) was found to be 3.33 ± 0.11 µM.

Turning to `C=CCn1cc(-c2nc3ccccc3s2)c2cc(-c3ccc4c5c(cccc35)C(=O)N(CCN3CCNCC3)C4=O)ccc21` [Compound 20, 6-(1-Allyl-3-(benzo[d]thiazol-2-yl)-1H-indol-5-yl)-2-(2-(piperazin-1-yl)ethyl)-1H-benzo[de] isoquinoline-1,3(2H)-dione], the melting point fell in the range of 294 to 297 °C. The same compound registered a concentration for half-maximal inhibition (IC50) in data set [1] (Homo sapiens, A549, 48 h) of 0.76 ± 0.04 µM. Besides, in data set [2] (Homo sapiens, MCF7, 48 h), the half-maximal inhibitory concentration (IC50) stood at 3.35 ± 0.16 µM. The IC50 in data set [3] (Homo sapiens) was 3.45 ± 0.13 µM. Also, in data set [4], the inhibition at 10 µM turned out to be 18%.

Regarding `CCCn1cc(-c2nc3ccccc3s2)c2cc(-c3ccc4c5c(cccc35)C(=O)N(N)C4=O)ccc21` [Compound 22, 2-Amino-6-(3-(benzo[d]thiazol-2-yl)-1-propyl-1H-indol-5-yl)-1H-benzo[de]isoquinoline-1,3(2H)-dione], the IC50 in data set [1] (Homo sapiens, A549, 48 h) worked out at 0.84 ± 0.07 µM; in data set [2] (Homo sapiens, MCF7, 48 h), 5.84 ± 0.28 µM; in data set [3] (Homo sapiens), 8.59 ± 0.28 µM.

In the case of `COc1cc([C@@H]2c3cc4c(cc3[C@@H](O[C@@H]3O[C@@H]5CO[C@@H](C)O[C@H]5[C@H](O)[C@H]3O)[C@H]3COC(=O)[C@H]23)OCO4)cc(OC)c1O` [Etoposide, reference compound], the half-inhibitory concentration (IC50) was 0.1 ± 0.02 µM in data set [1] (Homo sapiens, A549, 48 h); 0.33 ± 0.13 µM in data set [2] (Homo sapiens, MCF7, 48 h); 1.89 ± 0.19 µM in data set [3] (Homo sapiens).
